# Results from patent US7012089B2, “[1,4]Diazocino[7,8,1-hi]indole derivatives as antipsychotic and antiobesity agents” (Wyeth, priority 2002, dated 2006).
# Structures can show the parent of a compound that is named as a salt.
row,SMILES,melting point [°C]
1,"CN1CCc2cccc3c2N(CC1)C1CCCC31 (stereo not shown) (as salt: fumarate) [Example 3, 3-Methyl-2,3,4,5,9,10,11,11a-octahydro-1H,8bH-cyclopenta[b][1,4]diazocino[7,8,1-hi]indole]",159 to 161
2,"c1cc2c3c(c1)c1c(n3CCNCC2)CCCC1 (as salt: fumarate) [Example 6, 2,3,4,5,9,10,11,12-Octahydro-1H-[1,4]diazocino[7,8,1-jk]carbazole]",174 to 176
3,"CN1CCc2cccc3c2N(CC1)C1CCCCC31 (stereo not shown) (as salt: fumarate) [Example 7, 3-Methyl-2,3,4,5,8b,9,10,11,12,12a-decahydro-1H-[1,4]diazocino[7,8,1-jk]carbazole]",150 to 153
4,"c1cc2c3c(c1)C1CCCCC1N3CCNCC2 (stereo not shown) (as salt: fumarate) [Example 8, 2,3,4,5,8b,9,10,11,12,12a-Decahydro-1H-[1,4]diazocino[7,8,1-jk]carbazole]",169 to 171
5,"CN1CCc2cccc3c4c(n(c23)CC1)CCCCC4 (as salt: fumarate) [Example 9, 3-Methyl-2,3,4,5,10,11,12,13-octahydro-1H,9H-cyclohepta[b][1,4]diazocino[7,8,1-hi]indole]",190 to 192
6,"c1cc2c3c(c1)c1c(n3CCNCC2)CCCCC1 (as salt: fumarate) [Example 10, 2,3,4,5,10,11,12,13-Octahydro-1H,9H-cyclohepta[b]1,4]diazocino[7,8,1-hi]indole]",216 to 218
7,"CN1CCc2c(Cl)ccc3c2N(CC1)C1CCCC31 (stereo not shown) (as salt: fumarate) [Example 15, 6-Chloro-3-Methyl-2,3,4,5,9,10,11,11a-octahydro-1H,8bH-cyclopenta[b][1,4]diazocino[7,8,1-hi]indole]",196 to 199
8,"CN1CCc2c(Cl)ccc3c2N(CC1)C1CCCCCC31 (stereo not shown) (as salt: fumarate) [Example 16, 6-Chloro-3-methyl-2,3,4,5,9,10,11,12,13,13a-decahydro-1H,8bH-cyclohepta[b][1,4]diazocino[7,8,1-hi]indole]",190 to 193
9,"Clc1ccc2c3c(n4c2c1CCNCC4)CCC3 (as salt: fumarate) [Example 17, 6-Chloro-2,3,4,5,10,11-hexahydro-1H,9H-cyclopenta[b][1,4]diazocino[7,8,1-hi]indole]",188 to 190
10,"Clc1ccc2c3c(n4c2c1CCNCC4)CCCC3 (as salt: fumarate) [Example 18, 6-Chloro-2,3,4,5,9,10,11,12-octahydro-1H-[1,4]diazocino[7,8,1-jk]carbazole]",208 to 210
11,"Clc1ccc2c3c(n4c2c1CCNCC4)CCCCC3 (as salt: fumarate) [Example 19, 6-Chloro-2,3,4,5,10,11,12,13-octahydro-1H,9H-cyclohepta[b][1,4]diazocino[7,8,1-hi]indole]",208 to 210
12,"Clc1ccc2c3c1CCNCCN3C1CCCC21 (stereo not shown) (as salt: fumarate) [Example 20, 6-Chloro-2,3,4,5,9,10,11,11a-octahydro-1H,8bH-cyclopenta[b][1,4]diazocino[7,8,1-hi]indole]",188 to 189
13,"CCN1CCc2c(Cl)ccc3c2N(CC1)C1CCCC31 (stereo not shown) (as salt: fumarate) [Example 21, 6-Chloro-3-ethyl-2,3,4,5,9,10,11,11a-octahydro-1H,8bH-cyclopenta[b][1,4]diazocino[7,8,1-hi]indole]",199 to 201
14,"Clc1ccc2c3c1CCNCCN3C1CCCCCC21 (stereo not shown) (as salt: fumarate) [Example 22, 6-Chloro-2,3,4,5,9,10,11,12,13,13a-decahydro-1H,8bH-cyclohepta[b][1,4]diazocino[7,8,1-hi]indole]",168 to 170
15,"CCN1CCc2c(Cl)ccc3c2N(CC1)C1CCCCC31 (stereo not shown) (as salt: fumarate) [Example 23, 6-Chloro-3-ethyl-2,3,4,5,8b,9,10,11,12,12a-decahydro-1H-[1,4]diazocino[7,8,1-jk]carbazole]",184 to 187
16,"CN1CCc2ccc(F)c3c4c(n(c23)CC1)CCC4 (as salt: fumarate) [Example 24, 8-Fluoro-3-methyl-2,3,4,5,10,11-hexahydro-1H,9H-cyclopenta[b][1,4]diazocino[7,8,1-hi]indole]",168 to 170
17,"CN1CCc2ccc(F)c3c4c(n(c23)CC1)CCCC4 (as salt: fumarate) [Example 25, 8-Fluoro-3-methyl-2,3,4,5,9,10,11,12-octahydro-1H-[1,4]diazocino[7,8,1-jk]carbazole]",206 to 208
18,"CN1CCc2ccc(F)c3c2N(CC1)C1CCCC31 (stereo not shown) (as salt: fumarate) [Example 26, 8-Fluoro-3-methyl-2,3,4,5,9,10,11,11a-octahydro-1H,8bH-cyclopenta[b][1,4]diazocino[7,8,1-hi]indole]",180 to 182
19,"CN1CCc2ccc(F)c3c2N(CC1)C1CCCCC31 (stereo not shown) (as salt: fumarate) [Example 27, 8-Fluoro-3-methyl-2,3,4,5,8b,9,10,11,12,12a-decahydro-1H-[1,4]diazocino[7,8,1-jk]carbazole]",168 to 170

row,SMILES,melting point [°C]
1,"Fc1ccc2c3c1c1c(n3CCNCC2)CCC1 (as salt: fumarate) [Example 28, 8-Fluoro-2,3,4,5,10,11-hexahydro-1H,9H-cyclopenta[b][1,4]diazocino[7,8,1-hi]indole]",199 to 200
2,"Fc1ccc2c3c1c1c(n3CCNCC2)CCCC1 (as salt: fumarate) [Example 29, 8-Fluoro-2,3,4,5,9,10,11,12-octahydro-1H-[1,4]diazocino[7,8,1-jk]carbazole]",177 to 179
3,"Fc1ccc2c3c1C1CCCC1N3CCNCC2 (stereo not shown) (as salt: fumarate) [Example 30, 8-Fluoro-2,3,4,5,9,10,11,11a-octahydro-1H,8bH-cyclopenta[b][1,4]diazocino[7,8,1-hi]indole]",169 to 170
4,"Fc1ccc2c3c1C1CCCCC1N3CCNCC2 (stereo not shown) (as salt: fumarate) [Example 31, 8-Fluoro-2,3,4,5,8b,9,10,11,12,12a-decahydro-1H[1,4]diazocino[7,8,1-jk]carbazole]",189 to 190
5,"CN1CCc2ccc(Cl)c3c4c(n(c23)CC1)CCC4 (as salt: fumarate) [Example 34, 8-Chloro-3-methyl-2,3,4,5,10,11-hexahydro-1H,9H-cyclopenta[b][1,4]diazocino[7,8,1-hi]indole]",209 to 211
6,"CN1CCc2ccc(Cl)c3c4c(n(c23)CC1)CCCC4 (as salt: fumarate) [Example 35, 8-Chloro-3-methyl-2,3,4,5,9,10,11,12-octahydro-1H-[1,4]diazocino[7,8,1-jk]carbazole]",212 to 214
7,"CN1CCc2ccc(Cl)c3c2N(CC1)C1CCCC31 (stereo not shown) (as salt: fumarate) [Example 36, 8-Chloro-3-methyl-2,3,4,5,9,10,11,11a-octahydro-1H,8bH-cyclopenta[b][1,4]diazocino[7,8,1-hi]indole]",179 to 181
8,"CN1CCc2ccc(Cl)c3c2N(CC1)C1CCCCC31 (stereo not shown) (as salt: fumarate) [Example 37, 8-Chloro-3-methyl-2,3,4,5,8b,9,10,11,12,12a-decahydro-1H-[1,4]diazocino[7,8,1-jk]carbazole]",178 to 180
9,"Clc1ccc2c3c1c1c(n3CCNCC2)CCC1 (as salt: fumarate) [Example 38, 8-Chloro-2,3,4,5,10,11-hexahydro-1H,9H-cyclopenta[b][1,4]diazocino[7,8,1-hi]indole]",226 to 228
10,"Clc1ccc2c3c1c1c(n3CCNCC2)CCCC1 (as salt: fumarate) [Example 39, 8-Chloro-2,3,4,5,9,10,11,12-octahydro-1H-[1,4]diazocino[7,8,1-jk]carbazole]",199 to 201
11,"Clc1ccc2c3c1C1CCCC1N3CCNCC2 (stereo not shown) (as salt: fumarate) [Example 40, 8-Chloro-2,3,4,5,9,10,11,11a-octahydro-1H,8bH-cyclopenta[b][1,4]diazocino[7,8,1-hi]indole]",169 to 170
12,"Clc1ccc2c3c1C1CCCCC1N3CCNCC2 (stereo not shown) (as salt: fumarate) [Example 41, 8-Chloro-2,3,4,5,8b,9,10,11,12,12a-decahydro-1H-[1,4]diazocino[7,8,1-jk]carbazole]",199 to 200
13,"CN1CCc2cccc3c2N(CC1)C1CCSCC31 (stereo not shown) (as salt: fumarate) [Example 44, 3-Methyl-2,3,4,5,9,10,11,12-octahydro-1H,9H-[1,4]diazocino[7,8,1-hi]thiopyrano[4,3-b]indole]",187 to 189
14,"c1cc2c3c(c1)C1CCCC1N3CCNCC2 (stereo not shown) (as salt: hydrochloride) [Example 4, 2,3,4,5,9,10,11,11a-Octahydro-1H,8bH-cyclopenta[b][1,4]diazocino[7,8,1-hi]indole]",137 to 140
15,"Fc1ccc2c3c1[C@H]1CCCC[C@H]1N3CCNCC2 (single isomer, unassigned) (as salt: fumarate) [Example 32, (+)-(8bR*,12aR*)-8-Fluoro-2,3,4,5,8b,9,10,11,12,12a-decahydro-1H-[1,4]diazocino[7,8,1-jk]carbazole]",> 130
16,"Fc1ccc2c3c1[C@H]1CCCC[C@H]1N3CCNCC2 (single isomer, unassigned) (as salt: fumarate) [Example 33, (−)-(8bR*,12aR*)-8-Fluoro-2,3,4,5,8b,9,10,11,12,12a-decahydro-1H-[1,4]diazocino[7,8,1-jk]carbazole]",94 to 96
17,"Clc1ccc2c3c1[C@H]1CCCC[C@H]1N3CCNCC2 (single isomer, unassigned) (as salt: fumarate) [Example 42, (+)-(8bR*,12aR*)-8-Chloro-2,3,4,5,8b,9,10,11,12,12a-decahydro-1H-[1,4]diazocino[7,8,1-jk]carbazole]",170 to 173
18,"Clc1ccc2c3c1[C@H]1CCCC[C@H]1N3CCNCC2 (single isomer, unassigned) (as salt: fumarate) [Example 43, (−)-(8bR*,12aR*)-8-Chloro-2,3,4,5,8b,9,10,11,12,12a-decahydro-1H-[1,4]diazocino[7,8,1-jk]carbazole]",168 to 171
